The values below come from patent US20160279135A1, “THERAPIES FOR TREATING MYELOPROLIFERATIVE DISORDERS” (Gilead Sciences, Inc., priority 2013, published 2016).

The test system of one data set is pS6RP Ser235/236. Nature of the data set: flow cytometry of S6RP phosphorylation in CD34+ progenitor cells from MF patients. It counts as cell-based, human. Particulars: for normalized percentage of TPO-activated S6RP phosphorylation (p-S6RP): 2.0 μM, then TPO, one value per patient, TPO-treated vehicle = 100. The method, then: In this example, PBMCs were isolated from whole blood of myelofibrosis (MF) patients who had not received treatments (i.e. naïve patients) or received ruxolitinib (i.e. rux-treated patients). The cells were treated with 0.02, 0.2, or 2.0 μM of Compound B or vehicle (0.1% DMSO in 0.1% FBS/RPMI) for 2 hours at 37° C. The cells were then fixed, permeabilized, and stained for FACS analysis. Antibodies specific to p-AKT Ser473 and pS6RP Ser235/236 were used to detect AKT phosphorylation (p-AKT) and S6RP phosphorylation (p-S6RP) in CD34^+/CD3^−/CD14^−/CD19/CD66^− (BD Biosciences) gated cells using flow cytometry. The percentage of basal (i.e. untreated with TPO) AKT and S6RP phosphorylation were normalized to vehicle control (i.e. “no TPO” values shown in Table 2). A two-tailed paired t-test (GraphPad Prism) was used to calculate p-values. Values of p<0.05 were considered significant.
Also, PBMC cells were treated with Compound B and with TPO as described above. The percentage of TPO-activated AKT and S6RP phosphorylation were normalized to those of TPO-treated vehicle. […] Also, the inhibition to PI3K signaling was dose-dependent to Compound B.
Similar studies were conducted with PI3K inhibitors Compounds C and D. PBMC from MF patients had received ruxolitinib (rux) and MF patient had received Compound A. The cells were treated with Compounds C or D at 0, 20.0, 200.0, 2000.0 nM for 2 hours at 37° C. Cells were treated with TPO for 10 minutes. The percentage of basal p-AKT and p-S6RP levels were normalized to vehicle control and those of TPO-treated were normalized to TPO-treated vehicle control. The PI3K inhibitors Compounds C and D had the chemical names of (S)-2-(1-((9H-purin-6-yl)amino)ethyl)-6-fluoro-3-phenylquinazolin-4(3H)-one and (S)-2,4-diamino-6-(((5-chloro-8-fluoro-4-oxo-3-(pyridine-3-yl)-3,4-dihydroquinazolin-2-yl)(cyclopropyl)methyl)amino)pyrimidine-5-carbonitrile, respectively.

The next data set relates to pS6 Ser235/236. Nature of the data set: Western blot of S6 phosphorylation in UT-7/TPO cells. It counts as cell-based. Conditions: 2 h, then TPO 50 ng/mL 10 min, vs vehicle. The method, then: (§1) In addition, Compound B was examined for the effects on the PI3K signaling pathway by determining the levels of AKT and S6 phosphorylation with or without TPO activation. Two cell lines, BaF3/MPL and UT-7/TPO sensitive or responsive to TPO activation were used. The cells were starved (i.e. growing on medium having less FBS) in […] FBS/RPMI for two hours before treated with 0.1, 1.0, or 2.0 μM of Compound B or vehicle (0.1% DMSO in RPMI) for 2 hours at 37° C. To examine the TPO-activated phosphorylation, the cells were then treated or activated with 50 ng/mL of human recombinant TPO (Peprotech) for 10 minutes at 37° C. The TPO activation or treatment may reflect the conditions in diseased cells as the PI3K pathway is activated by TPO in myelofibrosis. After treating with compound and/or TPO, the cells were collected, lysed by lysis buffer (Cell Signaling), separated by SDS-PAGE, and analyzed by the Western blot using antibodies specific to p-AKT Ser473 or pS6 Ser235/236 (Cell Signaling). The phosphorylation levels in treated cells were calculated and compared to those of untreated cells (i.e. vehicle as negative control).

The nature of a further data set: clinical. Conditions: human, in vivo. The text has this:
For in vitro or in vivo studies, the effect amount of Compounds A, B, C, D, E, or ruxolinitib may be adjusted according to the experimental condition. Similarly, the effect amount of Compounds D1, D2, D3, D4, D5, D6, D7, D8, D9, E1, E2, E3, E4, E5, E6, E7, E8, E9, or F, may be adjusted according to the experimental condition for in vitro or in vivo studies. For example, compounds may be used in the amount of 0.001, 0.002, 0.003, 0.004, 0.005, 0.006, 0.007, 0.008, 0.009, 0.01, 0.02, 0.03, 0.04, 0.05, 0.06, 0.07, 0.08, 0.09, 0.1, 0.2, 0.3, 0.4, 0.5, 0.6, 0.7, 0.8, 0.9, 1.0, 1.5, 2.0, 2.5, 3.0, 3.5, 4.0, 5.0, 6.0, 7.0, 8.0, 9.0, or 10.0 μM. In some studies, the in vitro doses of the compounds may be calculated to correspond to the clinical doses of the compounds. The calculation may consider various factors, such as protein binding and plasma concentration. […] It is understood that the in vitro doses may differ, depend on the assay condition and other calculation factors, and that the clinical doses may differ depend on the disease indication and the patient condition.
(§2) In this study, PBMCs were isolated from the whole blood from five MF patients receiving chronic ruxolitinib treatment (rux 1-rux 5). The cells were treated with either vehicle, ruxolitinib, and/or Compound B for 2 hours then stimulated with TPO (50 ng/mL) for 10 minutes. Ruxolitinib at the dose of 1 or 20 nM and Compound B at the dose of 45, 200, or 700 nM were used.
Next, Pfeiffer cells were treated with IL6 (0 or 3 ng/mL), Compound A (0, 136, 272, or 695 nM), and/or Compound B (0, 74, 200, or 421 nM) (n=4 per group) for 96 hours. The doses in this assay may correspond to those used in a clinical setting. […] In addition, the in-vitro dose of 136 nM Compound A may correspond to the potential Caverage detected in patients receiving Compound A at 300 mg once a day.

In data set [1] the test system is p-AKT Ser473. As to the kind of experiment: Western blot of AKT phosphorylation in UT-7/TPO cells. It counts as cell-based. Particulars: 2 h, then TPO 50 ng/mL 10 min, vs vehicle. On the procedure:
as §1

Data set [2] has as its system p-AKT Ser473. As to the kind of experiment: Western blot of AKT phosphorylation in BaF3/MPL cells. It counts as cell-based. Particulars: 2 h, then TPO 50 ng/mL 10 min, vs vehicle. On the procedure:
as §1

The next data set has as its system p-S6RP. Nature of the data set: flow cytometry of p-S6RP in TPO-stimulated CD34+ cells from MF patients on chronic ruxolitinib (Example 8). It counts as cell-based, human. Conditions: for percentage of the p-S6RP levels: 2 h, then TPO 50 ng/mL, one value per patient, TPO vehicle = 100. The method, then: as §2
The treated cells were then fixed, permeabilized and stained for FACS analysis using FACSCalibur analyzed using BD FACSDiva software.

Several values for one entry are separate records, joined by “and”; a condition that tells them apart may be missing. Identical values can stand only once.

With `CC[C@H](Nc1ncnc2[nH]cnc12)c1nc2cccc(F)c2c(=O)n1-c1ccccc1` [Compound B, (S)-2-(1-((9H-purin-6-yl)amino)propyl)-5-fluoro-3-phenylquinazolin-4(3H)-one], the “normalized percentage of TPO-activated S6RP phosphorylation (p-S6RP)” value in the data set on pS6RP Ser235/236 (progenitor cells of naïve MF patients) is 23% and 45%; in the data set on pS6RP Ser235/236 (progenitor cells of rux-treated MF patients), 21% and 45% and 36% and 20% and 31%. In addition, in the data set with pS6RP Ser235/236 (0.02-2.0 μM, 2 h, no TPO, MF progenitor cells vs untreated, data not shown), the “basal p-S6RP levels” value is reported as “reduced levels”. For the same compound, the figures for the “reduced p-S6 levels” value in the data set with pS6 Ser235/236 (0.1 μM), in the data set on pS6 Ser235/236 (1.0 μM) and in the data set with pS6 Ser235/236 (2.0 μM) were 13%, 28% and 48%, respectively. Besides, the “in-vitro dose corresponding to the potential Caverage” value in “clinical” is listed as 200 nM. The “in-vitro dose corresponding to the potential Cmin” value in “clinical” is 74 nM. Also, the highest level in “clinical” (150 mg) (Cmax) was 421 nM. Besides, the “reduced p-AKT levels” value in the data set with p-AKT Ser473 [1] (0.1 μM) was determined as 11%; with p-AKT Ser473 [1] (1.0 μM), 44%; in the data set on p-AKT Ser473 [1] (2.0 μM) it was 55%; in the data set with p-AKT Ser473 [2] (0.1 μM), 51%; with p-AKT Ser473 [2] (1.0 μM), 64%. Further, the “percentage of the p-S6RP levels” value with p-S6RP (Compound B 45 nM) was 82% and 58% and 49% and 74% and 36%; in the data set on p-S6RP (Compound B 200 nM), 62% and 46% and 38% and 63% and 33%; with p-S6RP (Compound B 700 nM), 46% and 48% and 32% and 55% and 17%. In addition, the inhibition at 0.045 µM in the data set with p-S6RP (Homo sapiens, Compound B 45 nM, TPO-stimulated cells vs vehicle, all five patients, read-out: p-S6RP levels decreased (inhibited) by) was 40%. The inhibition at 0.2 µM in the data set with p-S6RP (Homo sapiens, Compound B 200 nM, TPO-stimulated cells vs vehicle, all five patients, read-out: p-S6RP levels decreased (inhibited) by) came out at 52%. Besides, the inhibition at 0.7 µM in the data set on p-S6RP (Homo sapiens, Compound B 700 nM, TPO-stimulated cells vs vehicle, all five patients, read-out: p-S6RP levels decreased (inhibited) by) worked out at 60%.
